Data: patent US20060063736A1, “Compositions and methods for inhibiting mucin-type O-linked glycosylation” (priority 2004, published 2006)
Where “and” joins values, the source holds several entries; their conditions need not be identical. Identical values can stand only once. One block for each molecule: values may come before it. No end group written: not given here.

Key:
mppGalNAcT-1 = biological target: T1, mppGalNAcT-1 (Mus musculus, UniProt O08912); assay: ELLA for ppGalNAcTs, mppGalNAcT-1; format: biochemical, murine; conditions: mppGalNAcT-1, ELLA validation
T1 construct: plasmids encoding truncated secreted ppGalNAcTs-1 to −5, -7, -10 and -11; made in house; host or cells: COS-7
T1 sequence (O08912 29-559 limits assumed): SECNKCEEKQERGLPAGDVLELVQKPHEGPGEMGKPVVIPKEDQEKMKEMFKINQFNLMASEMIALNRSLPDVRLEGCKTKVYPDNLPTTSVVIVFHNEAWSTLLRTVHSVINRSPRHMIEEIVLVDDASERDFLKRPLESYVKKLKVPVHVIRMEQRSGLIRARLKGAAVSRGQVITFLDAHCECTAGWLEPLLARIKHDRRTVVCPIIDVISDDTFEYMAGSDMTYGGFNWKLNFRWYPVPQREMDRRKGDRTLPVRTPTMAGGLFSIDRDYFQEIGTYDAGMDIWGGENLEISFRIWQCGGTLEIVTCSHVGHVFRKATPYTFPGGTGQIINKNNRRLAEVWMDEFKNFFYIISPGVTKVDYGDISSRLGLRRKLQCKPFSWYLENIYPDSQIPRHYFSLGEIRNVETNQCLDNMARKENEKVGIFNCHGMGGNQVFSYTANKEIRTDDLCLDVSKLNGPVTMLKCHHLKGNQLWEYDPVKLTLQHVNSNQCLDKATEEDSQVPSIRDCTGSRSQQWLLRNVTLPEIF
Experimental: COS-7 cells were transiently transfected with plasmids encoding truncated secreted ppGalNAcTs-1 to −5, -7, -10 and -11 as previously described. Hagen et al. (1997) J. Biol. Chem. 272:13843-13848. The crude conditioned medium was used as the enzyme source.
Standard reaction conditions for ppGalNAcT assays were as follows. The reaction mixture contained the following components in a final volume of 25 μL: 10 mM MnCl2, 40 mM sodium cacodylate, 40 mM β-mercaptoethanol, 0.1% Triton X-100, pH 6.5, 5 μL of conditioned media, and various concentrations of EA2 peptide 4, UDP-GalNAc and inhibitor. All uridine-based compounds were dissolved in dimethyl sulfoxide (DMSO). The concentration of DMSO in the reaction mixture was limited to 2% (v/v), as higher concentrations decreased ppGalNAcT activity. For inhibitor assays, reaction mixtures for positive controls also contained 2% DMSO. Unless otherwise stated, inhibitor assays were performed using 20 μM UDP-GalNAc and 50 μM EA2 peptide 4, the KM values for both substrates. Reactions were incubated at 37° C. and were terminated by the addition of 10 μL of 0.1 M EDTA. All experiments were performed in duplicate. Reaction rates were linear over the period monitored (20-30 min).
96-Well NeutrAvidin-coated plates were prewashed 3 times with 200 μL of wash buffer (25 mM Tris, 150 mM NaCl, 0.1% bovine serum albumin (BSA) (w/v), and 0.05% Tween (v/v), pH 7.2). Reactions were then transferred to the 96-well plates, incubated for 1 hour at room temperature (rt) and subsequently washed 3 times with 200 μL of phosphate-buffered saline (PBS) containing 0.5% BSA and 0.05% Tween, pH 7.1. A 100-μL solution of HPA-HRP in standard PBS buffer (1 μg/mL, pH 7.4) was added and the reaction was incubated for 1 h at rt. After 3 washes with 200 μL of PBS, bound HPA-HRP was quantified by the addition of 100 μL of TMB peroxide solution. The solutions were incubated for 5-15 min in the dark at rt. HRP activity was terminated by the addition of 50 μL of 2 N H2SO4 and the resulting solution was analyzed at 450 nm using a UV/Vis microtiter plate reader. The amount of product generated by the ppGalNAcT was extrapolated from absorbance values using an equation fit to the standard curve derived from Origin 6.1 software.
In order to screen the library in high-throughput format, a non-radioactive enzyme linked lectin assay (ELLA) for ppGalNAcTs was developed. As an acceptor substrate, the EA2 peptide (PTTDSTTPAPTTK; SEQ ID NO:12), a fragment of rat submandibular mucin, was chosen. Albone et al. (1994) J. Biol. Chem. 269:16845-16852. This peptide has been previously shown to be an efficient substrate for murine (m) ppGalNAcT-1 and is preferentially glycosylated at the fourth Thr residue from the N-terminus (underlined). Ten Hagen et al. (2001, supra). Biotinylation of EA2 allowed capture of (glyco)peptides onto 96-well NeutrAvidin-coated plates. The GalNAc-modified glycopeptide product could be detected using the α-GalNAc-specific lectin Helix pomatia agglutinin (HPA) (Hammarstrom et al. (1977) Biochemistry 16:2750-2755) conjugated to horseradish peroxidase (HRP). The bound HRP was quantified by addition of a chromogenic substrate.

Jurkat cells [1] = assay: HPA staining of Jurkat cells (Tn-antigen), flow cytometry; format: cell-based, human; conditions: Jurkat cells, 2 d treatment
Experimental: (§1) Jurkat cells were seeded at 250,000 cells/well (determined by Coulter cell counter) in 12-well polystyrene tissue culture plates in 1.0 mL of media and treated with various concentrations of 1-68A or 2-68A from 50 mM dimethyl sulfoxide (DMSO) stock solutions or doxorubicin or campothecin from 1 mM DMSO stock solutions. After 2 d, cells were harvested, washed twice with PBS buffer (PBS, pH 7.4, 0.1% FCS, 0.1% NaN3 w/v) and stained with FITC-HPA (1 μg/mL) or FITC-Con A (5 μg/mL with 1 mM CaCl2) in PBS, pH 7.4 in the dark for 1 h at 4° C. Cells were washed twice with PBS buffer, resuspended in 300 μL of PBS buffer and analyzed by flow cytometry (FacsCaliber, BD Instruments). Annexin-V staining was performed according to the manufacturer's protocols (Invitrogen).
(§2) To directly monitor ppGalNAcT activities in cells, Jurkat cells (human T-cell lymphoma), which are known to produce only the Tn-antigen (FIG. 1) as their O-linked glycans, were chosen. Piller et al. (1990) J. Biol. Chem. 265:9264-9271. Changes in Tn-antigen expression on the surface of Jurkat cells were monitored by HPA binding followed by flow cytometry analysis. Con A staining of N-linked glycans was used as a control for non-specific inhibition of protein glycosylation. Baenziger and Fiete (1979) J. Biol. Chem. 254:2400-2407.

Jurkat cells [2] = assay: Con A staining of N-linked glycans on Jurkat cells, flow cytometry; format: cell-based, human; conditions: 2 d treatment
Experimental: as §1, §2

Jurkat cells [3] = assay: Annexin-V staining of Jurkat cells (apoptosis); format: cell-based, human; conditions: 2 d treatment
Experimental: as §1, §2

[4] = biological target: C-terminal biotinylated EA2* glycopeptide 5 (…; SEQ ID NO:17) (rat); assay: enzyme-linked lectin assay (ELLA): 15% glycopeptide 5 (9 pmol) on NeutrAvidin plates, detected with HPA-HRP
[5] = biological target: T2, C-terminal biotinylated EA2 peptide 4 (PTTKDSTTPAPTTKK; SEQ ID NO:16)
T2 chain: PTTKDSTTPAPTTKK

Ki (mppGalNAcT-1; read-out: KI value for the product UDP): 251 µM and 250 µM
Molecule: O=c1ccn([C@@H]2O[C@H](COP(=O)(O)OP(=O)(O)O)[C@@H](O)[C@H]2O)c(=O)[nH]1 [UDP, reference compound]

Molecule: CC[C@@]1(O)C(=O)OCc2c1cc1n(c2=O)Cc2cc3ccccc3nc2-1 [campothecin, reference compound]
effect on HPA staining (Jurkat cells [1]): reduced
effect on Con A staining (Jurkat cells [2]): reduced
Annexin-V staining (induction of apoptosis) (Jurkat cells [3]): induced Annexin V binding at levels comparable to 1-68A

Molecule: COc1cccc2c1C(=O)c1c(O)c3c(c(O)c1C2=O)C[C@@](O)(C(=O)CO)C[C@@H]3O[C@H]1C[C@H](N)[C@H](O)[C@H](C)O1 [doxorubicin, reference compound]
effect on HPA staining (Jurkat cells [1]): reduced
effect on Con A staining (Jurkat cells [2]): reduced
Annexin-V staining (induction of apoptosis) (Jurkat cells [3]): induced Annexin V binding at levels comparable to 1-68A

Km (mppGalNAcT-1): 48 ± 4 µM
Molecule: EA2 peptide 4: C-terminal biotinylated EA2 peptide (PTTKDSTTPAPTTKK; SEQ ID NO:16), fragment of rat submandibular mucin, acceptor substrate (PTTKDSTTPAPTTKK-biotin) [reference compound]

signal to noise ratio (fold above background) [4]: 30
Molecule: Helix pomatia agglutinin (HPA) conjugated to horse radish peroxidase (HPA-HRP)

Molecule: uridine diphosphate N-acetyl-α-galactosamine [UDP-GalNAc, reference compound]
Km (mppGalNAcT-1): 13.9 µM and 14 µM

B1: murine polypeptide N-acetyl-α-galactosaminyltransferase-1 (mppGalNAcT-1) (protein)
chain: GLPAGDVLELVQKPHEGPGEMGKPVVIPKEDQEKMKEMFKINQFNLMASEMIALNRSLPDVRLEGCKTKVYPDNLPTTSVVIVFHNEAWSTLLRTVHSVINRSPRHMIEEIVLVDDASERDFLKRPLESYVKKLKVPVHVIRMEQRSGLIRARLKGAAVSRGQVITFLDAHCECTAGWLEPLLARIKHDRRTVVCPIIDVISDDTFEYMAGSDMTYGGFNWKLNFRWYPVPQREMDRRKGDRTLPVRTPTMAGGLFSIDRDYFQEIGTYDAGMDIWGGENLEISFRIWQCGGTLEIVTCSHVGHVFRKATPYTFPGGTGQIINKNNRRLAEVWMDEFKNFFYIISPGVTKVDYGDISSRLGLRRKLQCKPFSWYLENIYPDSQIPRHYFSLGEIRNVETNQCLDNMARKENEKVGIFNCHGMGGNQVFSYTANKEIRTDDLCLDVSKLNGPVTMLKCHHLKGNQLWEYDPVKLTLQHVNSNQCLDKATEEDSQVPSIRDCTGSRSQQWLLRNVTLPEIF
KM (ELLA enzyme kinetics) [5]: 48.0 ± 4.0 µM
